In US8933224B2, “Triazine derivatives” (Pfizer Inc., priority 2013, dated 2015):

Tests used:
[1] = biological target: human recombinant PDE10 enzyme (PDE10A) (Homo sapiens, UniProt Q9Y233); experiment: PDE10 scintillation proximity assay (SPA), inhibition of human recombinant PDE10 enzyme activity; assay type: biochemical; conditions: geometric mean of 2-4 determinations unless otherwise indicated (b: ≧5 determinations; c: single determination)
Description: PDE10 activity was measured using a scintillation assay (SPA-based method) similar to that previously described by Seeger, T. F. et al., Brain Research 985 (2003) 113-126. The compounds' relative activity as PDE10 inhibitors was investigated by assaying a fixed amount of enzyme in the presence of the test compound and low substrate concentration (cAMP) such that an IC50 could be determined. […] The assay is performed in a 384-well format with 50 μL assay buffer (50 mM TRIS pH 7.5; 1.3 mM MgCl2; 0.01% Brij) containing enough PDE10 to convert ˜20% of 20 nM ^3H-cAMP, and a range of inhibitors. Reactions are incubated for 30 minutes at 25° C. The addition of 20 μL of 8 mg/ml yttrium silicate SPA beads (PerkinElmer) stops the reaction. The plates are sealed (TopSeal, PerkinElmer) and the beads are allowed to settle for 8 hrs, after which they are read on the Trilux Microbeta overnight. ^1Rat enzyme preparation:^2Human enzyme preparation:
Human PDE10A coding sequence (amino acids 21 to 797 from the sequence with accession number NP_001124162.1) was synthesized using codon optimization for insect expression and cloned into the baculovirus expression vector pFastBac (Invitrogen) engineered to include a N-terminal His6 affinity tag to aid in purification as described in Seeger, T. F. et al., Brain Research 985 (2003) 113-126. The recombinant Bacmid was isolated and used to transfect sf9 insect cells to generate a viral stock. To generate cell paste for purification, sf21 cells were infected with the virus stock and cells were harvested 72 hours after infection as described in Seeger, T. F. et al., Brain Research 985 (2003) 113-126. Insect cell paste was lysed and after centrifugation, the supernatant was chromatographed on Ni-NTA agarose (Qiagen) as described in Seeger, T. F. et al., Brain Research 985 (2003) 113-126. Ni-NTA agarose eluting fractions containing PDE10A were chromatographed on Superdex 200 (GE Healthcare Life Sciences) in 50 mM Tris HCl pH 7.5, 150 mM NaCl, 1 mM EDTA, 10% glycerol, 2 mM TCEP, 1.5 mM benzamidine, EDTA-free protease inhibitors (Roche), and 5 μM E-64.

rat PDE10 enzyme = rat PDE10 enzyme (Rattus norvegicus (Rat), UniProt Q9QYJ6); experiment: PDE10 scintillation proximity assay (SPA), inhibition of rat PDE10 enzyme activity; assay type: biochemical; conditions: geometric mean of 2-4 determinations unless otherwise indicated (b: ≧5 determinations; c: single determination)
Summary of the method: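 SPA with fixed recombinant PDE10 (Sf21-expressed, Ni-NTA and Mono Q purified) converting ~20% of 20 nM ³H-cAMP in 50 mM TRIS pH 7.5, 1.3 mM MgCl2, 0.01% Brij, across an inhibitor range.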

Sequence of rat PDE10 enzyme (Q9QYJ6 24-794): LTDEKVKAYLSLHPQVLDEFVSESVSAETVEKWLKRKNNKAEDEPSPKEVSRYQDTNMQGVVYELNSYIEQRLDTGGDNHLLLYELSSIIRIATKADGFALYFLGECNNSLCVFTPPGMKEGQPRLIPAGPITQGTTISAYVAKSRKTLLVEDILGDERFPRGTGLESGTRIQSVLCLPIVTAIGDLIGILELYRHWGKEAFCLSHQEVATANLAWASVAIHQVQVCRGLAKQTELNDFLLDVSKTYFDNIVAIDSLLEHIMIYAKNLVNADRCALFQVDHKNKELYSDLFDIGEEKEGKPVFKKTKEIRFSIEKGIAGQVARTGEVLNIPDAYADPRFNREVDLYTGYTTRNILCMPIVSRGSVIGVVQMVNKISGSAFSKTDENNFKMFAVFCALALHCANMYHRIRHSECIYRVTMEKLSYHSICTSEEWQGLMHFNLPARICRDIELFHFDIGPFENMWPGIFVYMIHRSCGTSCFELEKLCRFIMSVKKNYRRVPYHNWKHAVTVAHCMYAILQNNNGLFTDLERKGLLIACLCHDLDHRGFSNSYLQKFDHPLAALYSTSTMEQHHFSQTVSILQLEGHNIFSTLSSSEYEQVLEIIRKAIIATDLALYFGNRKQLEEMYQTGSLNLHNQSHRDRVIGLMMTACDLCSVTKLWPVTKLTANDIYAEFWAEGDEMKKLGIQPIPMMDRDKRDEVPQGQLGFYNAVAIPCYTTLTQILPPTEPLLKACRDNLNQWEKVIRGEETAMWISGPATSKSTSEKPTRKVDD

Row | SMILES | IC50 [1] [nM] | IC50 (rat PDE10 enzyme) [nM]
1 | Cc1nc([C@H]2CCCO2)c2c(N3CCc4cnn(C)c4C3)ncnn12 (single isomer, unassigned) [Example 13] | 7.59 | –
2 | Cc1nc([C@@H]2CCOC2)c2c(N3Cc4c(cnn4C)[C@H](C)C3)ncnn12 (single isomer, unassigned) [Example 20] | 2.51 | 1.72
3 | Cc1nc(-c2ccccc2F)c2c(N3CCc4nc(C5CC5)ncc4C3)ncnn12 [Example 1, 2-Cyclopropyl-6-[5-(2-fluorophenyl)-7-methylimidazo[5,1-f][1,2,4]triazin-4-yl]-5,6,7,8-tetrahydropyrido[4,3-d]pyrimidine] | 5.93 | 4.23
4 | Cc1nc(-c2ccccc2F)c2c(N3CCc4cnn(C)c4C3)ncnn12 [Example 2, 5-(2-Fluorophenyl)-7-methyl-4-(1-methyl-1,4,5,7-tetrahydro-6H-pyrazolo[3,4-c]pyridin-6-yl)imidazo[5,1-f][1,2,4]triazine] | 3.28 | 2.95
5 | Cc1nc([C@@H]2CCOC2)c2c(N3CCc4cccnc4C3)ncnn12 [Example 3, 7-{7-Methyl-5-[(3S)-tetrahydrofuran-3-yl]imidazo[5,1-f][1,2,4]triazin-4-yl}-5,6,7,8-tetrahydro-1,7-naphthyridine] | 0.785 | 0.607
6 | COc1ccc2c(c1OCCF)CN(c1ncnn3c(C)nc([C@@H]4CCOC4)c13)CC2 [Example 4, 8-(2-Fluoroethoxy)-7-methoxy-2-{7-methyl-5-[(3S)-tetrahydrofuran-3-yl]imidazo[5,1-f][1,2,4]triazin-4-yl}-1,2,3,4-tetrahydroisoquinoline] | 0.0386 | 0.205
7 | Cc1nc([C@@H]2CCOC2)c2c(N3CCc4cnn(C5CC5)c4C3)ncnn12 [Example 5, 4-(1-Cyclopropyl-1,4,5,7-tetrahydro-6H-pyrazolo[3,4-c]pyridin-6-yl)-7-methyl-5-[(3S)-tetrahydrofuran-3-yl]imidazo[5,1-f][1,2,4]triazine] | 0.427 | 0.299
8 | Cc1nc([C@@H]2CCOC2)c2c(N3CCc4noc(C5CC5)c4C3)ncnn12 [Example 6, 4-(3-Cyclopropyl-6,7-dihydro[1,2]oxazolo[4,3-c]pyridin-5(4H)-yl)-7-methyl-5-[(3S)-tetrahydrofuran-3-yl]imidazo[5,1-f][1,2,4]triazine] | 0.406 | 0.364
9 | Cc1nc([C@@H]2CCOC2)c2c(N3CCc4cnn(C)c4C3)ncnn12 [Example 8, 7-Methyl-4-(1-methyl-1,4,5,7-tetrahydro-6H-pyrazolo[3,4-c]pyridin-6-yl)-5-[(3S)-tetrahydrofuran-3-yl]imidazo[5,1-f][1,2,4]triazine] | 3.41 | 2.36
10 | Cc1nc([C@@H]2CCOC2)c2c(N3CCc4nc(C5CC5)oc4C3)ncnn12 [Example 9, 4-(2-Cyclopropyl-6,7-dihydro[1,3]oxazolo[5,4-c]pyridin-5(4H)-yl)-7-methyl-5-[(3S)-tetrahydrofuran-3-yl]imidazo[5,1-f][1,2,4]triazine] | 1.14 | 0.892
11 | Cc1nc([C@@H]2CCOC2)c2c(N3CCc4nn(C5CC5)cc4C3)ncnn12 [Example 11, 4-(2-Cyclopropyl-2,4,6,7-tetrahydro-5H-pyrazolo[4,3-c]pyridin-5-yl)-7-methyl-5-[(3S)-tetrahydrofuran-3-yl]imidazo[5,1-f][1,2,4]triazine] | 0.265 | 0.174
12 | Cc1nc([C@@H]2CCOC2)c2c(N3CCc4c(c(C5CC5)nn4C)C3)ncnn12 [Example 12, 4-(3-Cyclopropyl-1-methyl-1,4,6,7-tetrahydro-5H-pyrazolo[4,3-c]pyridin-5-yl)-7-methyl-5-[(3S)-tetrahydrofuran-3-yl]imidazo[5,1-f][1,2,4]triazine] | 0.257 | 0.194
13 | CCc1nn(C)c2c1CN(c1ncnn3c(C)nc([C@@H]4CCOC4)c13)CC2 [Example 18, 4-(3-ethyl-1-methyl-1,4,6,7-tetrahydro-5H-pyrazolo[4,3-c]pyridin-5-yl)-7-methyl-5-[(3S)-tetrahydrofuran-3-yl]imidazo[5,1-f][1,2,4]triazine] | 0.486 | 0.147
14 | COc1ccc2c(n1)CN(c1ncnn3c(C)nc([C@@H]4CCOC4)c13)CC2 [Example 19, 2-methoxy-7-{7-methyl-5-[(3S)-tetrahydrofuran-3-yl]imidazo[5,1-f][1,2,4]triazin-4-yl}-5,6,7,8-tetrahydro-1,7-naphthyridine] | 2.75 | 2.04
15 | Cc1nc(C2CCOCC2)c2c(N3CCc4c(c(C(C)C)nn4C)C3)ncnn12 [Example 21, 4-(3-isopropyl-1-methyl-1,4,6,7-tetrahydro-5H-pyrazolo[4,3-c]pyridin-5-yl)-7-methyl-5-(tetrahydro-2H-pyran-4-yl)imidazo[5,1-f][1,2,4]triazine] | 0.876 | 0.51
16 | Cc1nc(-c2ccccc2F)c2c(N3CCc4nc(C5CC5)n(C)c(=O)c4C3)ncnn12 [Example 142, 2-cyclopropyl-6-[5-(2-fluorophenyl)-7-methylimidazo[5,1-f][1,2,4]triazin-4-yl]-3-methyl-5,6,7,8-tetrahydropyrido[4,3-d]pyrimidin-4(3H)-one] | 1.31 | –
17 | CNc1ccc2c(n1)CCN(c1ncnn3c(C)nc(-c4ccccc4F)c13)C2 [Example 153, 6-[5-(2-fluorophenyl)-7-methylimidazo[5,1-f][1,2,4]triazin-4-yl]-N-methyl-5,6,7,8-tetrahydro-1,6-naphthyridin-2-amine] | – | 0.436
18 | Cc1nc([C@@H]2CCOC2)c2c(N3CCc4nc(C5CC5)ccc4C3)ncnn12 [Example 154, 2-cyclopropyl-6-{7-methyl-5-[(3S)-tetrahydrofuran-3-yl]imidazo[5,1-f][1,2,4]triazin-4-yl}-5,6,7,8-tetrahydro-1,6-naphthyridine] | – | 0.144
19 | Cc1cccc2c1CN(c1ncnn3c(C)nc([C@@H]4CCOC4)c13)CC2 [Example 155, 8-methyl-2-{7-methyl-5-[(3S)-tetrahydrofuran-3-yl]imidazo[5,1-f][1,2,4]triazin-4-yl}-1,2,3,4-tetrahydroisoquinoline] | – | 0.171
20 | Cc1nc([C@@H]2CCOC2)c2c(N3CCc4c(O)nc(C5CCCC5)nc4C3)ncnn12 [Example 158, 2-cyclopentyl-7-{7-methyl-5-[(3S)-tetrahydrofuran-3-yl]imidazo[5,1-f][1,2,4]triazin-4-yl}-5,6,7,8-tetrahydropyrido[3,4-d]pyrimidin-4-ol] | – | 0.227
21 | Cc1nc(-c2ccccc2F)c2c(N3CCc4c(O)nc(C5CCCC5)nc4C3)ncnn12 [Example 160, 2-cyclopentyl-7-[5-(2-fluorophenyl)-7-methylimidazo[5,1-f][1,2,4]triazin-4-yl]-5,6,7,8-tetrahydropyrido[3,4-d]pyrimidin-4-ol] | – | 3.76
22 | Cc1nc([C@@H]2CCOC2)c2c(N3CCc4nccnc4C3)ncnn12 [Example 171, 6-{7-methyl-5-[(3S)-tetrahydrofuran-3-yl]imidazo[5,1-f][1,2,4]triazin-4-yl}-5,6,7,8-tetrahydropyrido[3,4-b]pyrazine] | – | 2.55
23 | Cc1nc(-c2ccccc2F)c2c(N3CCc4ncnc(O)c4C3)ncnn12 [Example 172, 6-[5-(2-fluorophenyl)-7-methylimidazo[5,1-f][1,2,4]triazin-4-yl]-5,6,7,8-tetrahydropyrido[4,3-d]pyrimidin-4-ol] | – | 11.3
24 | [2H]C([2H])([2H])Oc1nc(C2CC2)nc2c1CN(c1ncnn3c(C)nc([C@@H]4CCOC4)c13)CC2 [Example 173] | – | 0.136
